Laboratory results reported in patent publication US7897637B2, “Methods of using flavonoids to enhance memory” (The Salk Institute for Biological Studies, priority 2006, dated 2011).

Key:
[1] = tested on: Male C57Bl/6J mice; assay: Object recognition task; format: in vivo; conditions: 60 minutes prior to training, vs vehicle
Protocol: The effect of fisetin, 3,3′,4′-THF, and apigenin (5,7,4′-THF) on memory was tested in mice using an object recognition task (Ennaceur and Delacour, Behav. Brain Res., 31:47-59, 1988). Among the alternatives available for testing memory, this assay has proven very effective for measuring CREB-dependent functions (Prickaerts et al., Neurosci., 113:351-61, 2002; Bourtchouladze et al., Proc. Natl. Acad. Sci. USA, 100:10518-22, 2003). In this test, mice are presented with two identical objects during the training period which they explore for a fixed time period. To test for memory, mice are presented one day later with two different objects, one of which was presented previously during the training and is thus familiar to the mice, and the other that is novel. The better a mouse remembers the familiar object, the more time it will spend exploring the novel object. To test the effects of fisetin, 3,3′,4′-THF, or apigenin (5,7,4′-THF) in this memory task, the respective compound was administered orally to the mice before the start of the training period. Rolipram, a phosphodiesterase inhibitor that potentiates memory in this assay (Bourtchouladze et al., Proc. Natl. Acad. Sci. USA, 100:10518-22, 2003), requires intraperitoneal injection and was used as a positive control.
Male C57Bl/6J mice (Jackson Laboratories) were used and the testing was done by PsychoGenics (Tarrytown, N.Y.). All mice were acclimated to the colony room for at least 2 weeks prior to testing and were tested at an average age of 8 weeks. Mice were randomly assigned across treatment groups with 10 mice in each group. For each dose tested, a 10× solution of fisetin was prepared in 95% ethanol and then diluted with 4 volumes polyethylene glycol 660 hydroxystearate (Solut HS15 from BASF) and 5 volumes phosphate buffered saline. The vehicle was contained the identical ratios of ethanol, Solut HS15 and phosphate buffered saline. All were administered orally 60 minutes prior to training at a volume of 10 ml/kg body weight. Rolipram was dissolved in 10% DMSO and administered intraperitoneally 20 minutes prior to training. The test was performed as previously described by Bourtchouladze et al. (Proc. Natl. Acad. Sci. USA, 100:10518-22, 2003). Briefly, on Day 1 mice were habituated to a circular open field arena for one hour in cage groups of four. Twenty-four (24) hours later, individual mice were placed back in the same arena which now contained two identical objects for a 15 minutes training trial. […] Each animal's test trial was recorded and the first 10 minutes of each session were scored. […] Data were analyzed by a one-way ANOVA followed by post-hoc comparisons with Fisher's test. […]

[2] = tested on: GSH; assay: Total cellular GSH levels in HT22 cells; format: cell-based, mouse; conditions: 8 hours; for GSH levels in the presence of oxidative stress: 5 mM glutamate
Protocol: The effects of fisetin derivatives on cellular GSH levels was then determined. HT22 cells were untreated (Ct) or treated with 10 μM fisetin, 25 μM 3,3′-DHF, 25 μM 3,4′-DHF, 2.5 μM 3′,4′-DHF, 2.5 μM 3,3′,4′-THF, 25 μM 3,7,3′-THF, 25 μM 3,7,4′-THF or 10 μM 7,3′,4′-THF alone or in the presence of 5 mM glutamate. After 8 hours cellular levels of total GSH were determined as described in Example 4. The GSH level of the control sample (31.5±10 nmoles/mg protein) was taken as 100%.
Total intracellular GSH/GSSG was determined using whole cell lysates from untreated, glutamate treated, flavonoid treated and glutamate plus flavonoid treated cells as described (Maher and Hanneken, Invest. Opthalmol. Vis. Sci., 46:749-57, 2005, herein incorporated by reference as to the method) and normalized to total cellular protein.

[3] = tested on: Nrf2 and HO-1; assay: Nrf2 and HO-1 induction in HT22 cells (immunoblotting); format: cell-based, mouse; conditions: for increasing the levels of Nrf2 and inducing HO-1 synthesis: HT22 cells, 10-25 μM, 4 hours (Nrf2), 24 hours (HO-1)
Protocol: Since the ability to activate the ARE could be important for some of the beneficial effects of flavonoids such as fisetin, it was determined which, if any, of the fisetin derivatives could activate the ARE and induce the synthesis of downstream proteins such as HO-1. HT22 cells were untreated (control) or treated with 10 μM fisetin, 25 μM 3,3′DHF, 25 μM 3,4′-DHF, 10 μM 3′,4′-DHF, 10 μM 3,3′,4′-THF, 25 μM 3,7,3′-THF, 25 μM 3,7,4′-THF or 10 μM 7,3′,4′-THF for 4 hours. Nuclei were prepared and equal amounts of protein were analyzed by SDS-PAGE and immunoblotting with anti-Nrf-2 antibodies.
ERK activation is implicated in the induction of Nrf2 by certain stimuli in some cell types. To determine if ERK activation plays a role in the induction of Nrf2 and HO-1 by fisetin and its derivatives, cells were pretreated with PD98059 prior to the addition of the flavonoids to the cells. HT22 cells then were untreated (control) or treated for 24 hours with 10 μM fisetin, 25 μM 3,3′-DHF, 25 μM 3,4′-DHF, 10 μM 3′,4′-DHF, 10 μM 3,3′,4′-THF, 25 μM 3,7,3′-THF, 25 μM 3,7,4′-THF or 10 μM 7,3′,4′-THF. Cell lysates were prepared and equal amounts of cellular protein were analyzed by SDS-PAGE and immunoblotting with anti-HO-1 antibodies. Immunoblotting with anti-actin was used as a loading control.
For immunoblotting of HO-1, untreated and flavonoid-treated HT22 cells from the same density cultures as used for the cell death assays were washed twice in cold phosphate-buffered saline (PBS) then scraped into lysis buffer containing 50 mM HEPES, pH 7.4, 150 mM NaCl, 50 mM NaF, 1.5 mM MgC2, 1 mM EGTA, 10% glycerol, 1% Triton X-100, 10 mM sodium pyrophosphate, 1 mM Na3VO4, 1 mM phenylmethylsulfonyl fluoride (PMSF), 15 μg/ml aprotinin, 1 μg/ml pepstatin, and 5 μg/ml leupeptin. Lysates were incubated at 4° C. for 30 minutes, and then cleared by centrifugation at 14,000 rpm for 10 minutes. For immunoblotting of Nr12, nuclear extracts were prepared as described (Schreiber et al., Nuc. Acids Res., 17:6419, 1989) from untreated and flavonoid-treated cells. […] Protein concentrations were determined using the BCA protein assay (Pierce). Equal amounts of protein were solubilized in 2.5×SDS sample buffer, separated on 10% SDS polyacrylamide gels and transferred to nitrocellulose. The primary antibodies used were: anti-Nrf2 (#SC13032; 1/1000) from Santa Cruz Biotechnology (Santa Cruz, Calif.) and anti-HO-1 (#SPA-896; 1/5000) from Stressgen (Victoria, BC Canada).

| SMILES | object recognition ([1]; 25 mg/kg oral) | GSH levels in the presence of oxidative stress [2] | increasing the levels of Nrf2 and inducing HO-1 synthesis [3] | basal levels of GSH ([2]; flavonoid alone) | object recognition ([1]; 10 mg/kg oral) | effect of inhibition of ERK activation (PD98059) on Nrf2 and HO-1 induction ([3]; PD98059 pretreatment) |
| --- | --- | --- | --- | --- | --- | --- |
| O=c1c(O)c(-c2ccc(O)c(O)c2)oc2ccccc12 [3,3′,4′-THF, 3,3′,4′-trihydroxyflavone] | significantly increased object recognition | able to maintain GSH levels | fairly effective | – | – | – |
| O=c1cc(-c2ccc(O)c(O)c2)oc2ccccc12 [3′,4′-DHF, 3′,4′-dihydroxyflavone] | – | could not maintain GSH levels | weakly active | raised the basal levels of GSH | – | – |
| O=c1c(O)c(-c2ccc(O)c(O)c2)oc2cc(O)ccc12 [fisetin, 3,3′,4′,7-tetrahydroxyflavone] | significant effects | – | best of the group | – | significant effects | no effect |
